Molecular target: MASP-2 CCP2-SP (Homo sapiens (Human), UniProt O00187)
Assay: MASP-2 co-crystallization, X-ray crystallography and structure analysis (H-bonds, van der Waals contacts);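 on Ligand-pharmacophore element distance, pharmacophore element C2: distance from averaged pharmacophore element to bound ligand; missing value means element absent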;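 on Ligand-pharmacophore element distance, pharmacophore element C3: distance from averaged pharmacophore element to bound ligand; missing value means element absent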;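 on Ligand-pharmacophore element distance, pharmacophore element C4: distance from averaged pharmacophore element to bound ligand; missing value means element absent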;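 on Ligand-pharmacophore element distance, pharmacophore element C5: distance from averaged pharmacophore element to bound ligand; missing value means element absent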
Parameters: van der Waals contact distance, MASP-2 HIS 483 atom CD2 / van der Waals contact distance, MASP-2 HIS 483 atom NE2 / van der Waals contact distance, SER 654 C to compound atom / van der Waals contact distance, SER 654 O to compound atom / van der Waals contact distance, TRP 655 C to compound atom / van der Waals contact distance, MASP-2 GLY 528 atom CA / van der Waals contact distance TRP 655 atom CZ3 / van der Waals contact distance TRP 655 atom N / van der Waals contact distance TRP 655 atom CE3 / van der Waals contact distance GLY 656 atom C / van der Waals contact distance GLY 656 atom CA / van der Waals contact distance GLY 656 atom O / van der Waals contact distance, MASP-2 TYR 607 atom CD1 / van der Waals contact distance, MASP-2 PRO 606 atom O / d(C3,CA1) / d(CA1,N1)2 / d(H4,O1) / d(H4,O2) / d(O1,O2) / d(CA1,O2) / d(CA6,O1) / d(CA6,O2) / d(CA1,C5) / d(O2,H3) / d(N2,C2) / d(CA5,N2) / d(N2,C4) / d(N2,C6) / d(N2,CA3) / d(N2,O3) / d(O4,H2): unit not given beside the values
Settings: for Ligand-pharmacophore element distance, pharmacophore element C2 / Ligand-pharmacophore element distance, pharmacophore element C3 / Ligand-pharmacophore element distance, pharmacophore element C4 / Ligand-pharmacophore element distance, pharmacophore element C5 / Ligand-pharmacophore element distance, pharmacophore element C6 / Ligand-pharmacophore element distance, pharmacophore element C7 / Ligand-pharmacophore element distance, pharmacophore element CA1 / Ligand-pharmacophore element distance, pharmacophore element CA2 / Ligand-pharmacophore element distance, pharmacophore element CA3 / Ligand-pharmacophore element distance, pharmacophore element CA4 / Ligand-pharmacophore element distance, pharmacophore element CA5 / Ligand-pharmacophore element distance, pharmacophore element CA6: Table A4-1; for d(CA1,C5) / d(CA1,O1) / d(CA1,O2) / d(CA1,O4) / d(H4,O1) / d(H4,O2) / d(O1,O2) / d(O4,H2): Table A5-1 pharmacophore: distance between elements, S2/S1 region; for d(N2,C2) / d(N2,CA2) / d(O2,H3) / d(O2,N2): Table A5-2 pharmacophore distance, S3/S4 region; for a(C5, CA1, O1) / a(CA1, O1, O2) / a(CA1, O4, H2) / a(O1, CA1, O4) / a(O1, O2, H4): Table A6-1 pharmacophore angle; for a(O1, O2, H3) / a(O1, O2, N2) / a(O2, N2, C2) / a(O2, N2, CA2): Table A6-2 pharmacophore angle; for Pharmacophore torsion angle a(C5, CA1, O1, H4) / Pharmacophore torsion angle a(H4, O1, O2, H3) / Pharmacophore torsion angle a(H4, O1, O2, N2) / Pharmacophore torsion angle a(O1, H4, O2, CA1) / Pharmacophore torsion angle a(O1, O2, N2, C2): Table A7-1; for Pharmacophore torsion angle a(C5, CA1, O1, H4) / Pharmacophore torsion angle a(H4, O1, O2, H3) / Pharmacophore torsion angle a(H4, O1, O2, N2) / Pharmacophore torsion angle a(O1, H4, O2, CA1) / Pharmacophore torsion angle a(O1, O2, N2, C2) / Pharmacophore torsion angle a(O1, O2, N2, CA2): between pharmacophore elements of the bound compound; for Pharmacophore torsion angle a(O1, O2, N2, CA2): Table A7-2
Excerpt: This example illustrates the preparation of recombinant MASP-2 protein, based on UniProt O00187, human mannan-binding lectin serine protease 2. Expression constructs for human MASP-2 CCP2-SP and CCP2-SP-6HIS were generated for recombinant expression in E. coli cells.
Typically, crystallization hits were obtained by screening against […] 96-well crystallization reagent kits (GRAS6, GRAS2, Hampton Research; MORPHEUS, Molecular Dimensions; Wizard 1&2 Cryo, Rigaku Reagents) and crystal growth was inspected by optical microscopy. Crystals were used directly or further optimized for X-ray diffraction. Crystals were captured with cryogenic loops and dipped into liquid nitrogen directly or cryoprotected with a 20% glycerol in crystallization formulation before flash-cooling in liquid nitrogen.
Thereafter crystals are transferred once or twice for soaking within the crystallization solution containing the MASP-2 inhibitor.
Crystals were diffracted with synchrotron X-rays of […] and X-ray diffraction datasets were collected at beamlines SSRL BL9-2, BL14-1, BL12-2 as well as ALS sector 5 using Dectris Pilatus and Eiger detectors. Structures were determined by molecular replacement using portions of the structure 1Q3X as search models and partially refined with Buster 2.10.2 or Refmac 5.8. […] When multiple ligand poses were observed, for instance arising from multiple molecules in the asymmetric unit or refined dual poses within the same molecule, only one pose was selected and analyzed.
LigPlot+ calls these ‘nonbonded contacts’ or ‘hydrophobic contacts’. Despite the name, there are atom pairings that include possible H-bonds. Thus, in some instances, the Table A2 also contains H-bond interactions.

[1] = Table A8-6, nearest protein atom in cell to the left

MASP-2 CCP2-SP, sequence (O00187 445-686): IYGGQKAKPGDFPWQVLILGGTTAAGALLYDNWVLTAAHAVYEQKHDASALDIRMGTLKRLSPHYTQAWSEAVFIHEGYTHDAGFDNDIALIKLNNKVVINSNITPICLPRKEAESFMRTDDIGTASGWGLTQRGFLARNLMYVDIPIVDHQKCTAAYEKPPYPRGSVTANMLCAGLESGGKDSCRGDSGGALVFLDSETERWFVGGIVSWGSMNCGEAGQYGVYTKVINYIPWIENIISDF
MASP-2 CCP2-SP, sequence (O00187 364-432 partner): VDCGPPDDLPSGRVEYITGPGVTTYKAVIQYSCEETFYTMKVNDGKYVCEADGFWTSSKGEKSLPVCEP

Structure (SMILES): C[C@H](NC(=O)[C@H]1C[C@@H](c2ccccc2)CCN1)C(=O)NCc1cc(Cl)ccc1O.Cl [1078_1]
- Ligand-pharmacophore element distance, pharmacophore element C2: 0.69
- Ligand-pharmacophore element distance, pharmacophore element C3: 0
- Ligand-pharmacophore element distance, pharmacophore element C4: 0
- Ligand-pharmacophore element distance, pharmacophore element C5: 0.4
- Ligand-pharmacophore element distance, pharmacophore element C6: 0
- Ligand-pharmacophore element distance, pharmacophore element C7: 0
- Ligand-pharmacophore element distance, pharmacophore element CA1: 1.58
- Ligand-pharmacophore element distance, pharmacophore element CA2: 0.48
- Ligand-pharmacophore element distance, pharmacophore element CA3: 0
- Ligand-pharmacophore element distance, pharmacophore element CA4: 0
- Ligand-pharmacophore element distance, pharmacophore element CA5: 0
- Ligand-pharmacophore element distance, pharmacophore element CA6: 0
- d(CA1,C5): 3.12
- d(CA1,O1): 4.56
- d(CA1,O2): 4.72
- d(CA1,O4): 2.75
- d(H4,O1): 2.29
- d(H4,O2): 2.61
- d(O1,O2): 3.05
- d(O4,H2): 0.97
- d(N2,C2): 1.48
- d(N2,CA2): 5.74
- d(O2,H3): 2.93
- d(O2,N2): 2.77
- a(C5, CA1, O1): 160.22
- a(CA1, O1, O2): 111.94
- a(CA1, O4, H2): 126.79
- a(O1, CA1, O4): 68.03
- a(O1, O2, H4): 103.21
- a(O1, O2, H3): 141.96
- a(O1, O2, N2): 145.93
- a(O2, N2, C2): 121.70
- a(O2, N2, CA2): 154.68
- Pharmacophore torsion angle a(C5, CA1, O1, H4): 25.08
- Pharmacophore torsion angle a(H4, O1, O2, H3): −119.94
- Pharmacophore torsion angle a(H4, O1, O2, N2): −112.97
- Pharmacophore torsion angle a(O1, H4, O2, CA1): −60.12
- Pharmacophore torsion angle a(O1, O2, N2, C2): 138.25
- Pharmacophore torsion angle a(O1, O2, N2, CA2): 140.46
- Pharmacophore protein distance to MET_658 (first MET_658 column) (Table A8-6, 6th residue column, nearest protein atom in cell to the left): 2.97
- Pharmacophore protein distance to MET_658 (second MET_658 column) (Table A8-6, 9th residue column, nearest protein atom in cell to the left): 3.50
- Pharmacophore protein distance to GLY_528 [1]: 3.66
- Pharmacophore protein distance to PHE_529 [1]: 3.30
- Pharmacophore protein distance to PRO_608 [1]: 3.85
- Pharmacophore protein distance to SER_611 [1]: 2.41
- Pharmacophore protein distance to TRP_655 (Table A8-6, pharmacophore elements C6, CA3, O3, H1, nearest protein atom in cell to the left): 3.68

Structure (SMILES): C[C@H](NC(=O)[C@H]1C[C@@H](c2ccccc2)CCN1)C(=O)NCc1cc(Cl)ccc1O.Cl [1078_2]
- Ligand-pharmacophore element distance, pharmacophore element C2: 0.61
- Ligand-pharmacophore element distance, pharmacophore element C3: 0
- Ligand-pharmacophore element distance, pharmacophore element C4: 0
- Ligand-pharmacophore element distance, pharmacophore element C5: 0.46
- Ligand-pharmacophore element distance, pharmacophore element C6: 0
- Ligand-pharmacophore element distance, pharmacophore element C7: 0
- Ligand-pharmacophore element distance, pharmacophore element CA1: 1.55
- Ligand-pharmacophore element distance, pharmacophore element CA2: 0.61
- Ligand-pharmacophore element distance, pharmacophore element CA3: 0
- Ligand-pharmacophore element distance, pharmacophore element CA4: 0
- Ligand-pharmacophore element distance, pharmacophore element CA5: 0
- Ligand-pharmacophore element distance, pharmacophore element CA6: 0
- d(CA1,C5): 3.12
- d(CA1,O1): 4.69
- d(CA1,O2): 4.62
- d(CA1,O4): 2.75
- d(H4,O1): 2.19
- d(H4,O2): 2.44
- d(O1,O2): 3.25
- d(O4,H2): 0.97
- d(N2,C2): 1.44
- d(N2,CA2): 5.72
- d(O2,H3): 2.53
- d(O2,N2): 2.72
- a(C5, CA1, O1): 159.94
- a(CA1, O1, O2): 109.26
- a(CA1, O4, H2): 128.74
- a(O1, CA1, O4): 65.74
- a(O1, O2, H4): 91.16
- a(O1, O2, H3): 141.98
- a(O1, O2, N2): 146.00
- a(O2, N2, C2): 128.07
- a(O2, N2, CA2): 155.89
- Pharmacophore torsion angle a(C5, CA1, O1, H4): 38.04
- Pharmacophore torsion angle a(H4, O1, O2, H3): −132.87
- Pharmacophore torsion angle a(H4, O1, O2, N2): −119.25
- Pharmacophore torsion angle a(O1, H4, O2, CA1): −57.88
- Pharmacophore torsion angle a(O1, O2, N2, C2): 127.17
- Pharmacophore torsion angle a(O1, O2, N2, CA2): 137.47

Source: US12195427B2, “MASP-2 inhibitors and methods of use” (priority 2018, dated 2025)
